Reference: ChEMBL document CHEMBL4602659, “β,β-Dimethylacrylshikonin Induces Apoptosis in Melanoma Cell Lines by NOXA Upregulation” (J Nat Prod, 2020)
Active and inactive are the calls of the source. The rule behind the calls is not given here.

What was measured:
[1] = Cytotoxicity against human A375-S2 cells assessed as reduction in cell viability after 48 hrs by MTT assay; type: functional, cell-based; conditions: A375-S2, 48 h
WM164 [2] = assay: Induction of apoptosis in human WM164 cells assessed as effect on BAD protein expression at IC50 concentration after 24 hrs by Western blot analysis; type: functional, cell-based
SBcl2 [3] = assay: Induction of apoptosis in human SBcl2 cells assessed as early apoptotic cells at IC50 concentration after 6 hrs by Annexin V/SYTOX Green based flow cytometric analysis (reference value: 3.77%); type: functional
SBcl2 [4] = assay: Antitumour activity against human SBcl2 cells xenografted in NU(NCr)-Foxn1 mouse assessed as increase in caspase -activity at 2 ug/g administered for three consecutive days with 1 day interval for four cycle by hematoxylin and eosin staining based microscopic analysis; type: functional, cell-based
SBcl2 [5] = assay: Induction of apoptosis in human SBcl2 cells assessed as effect on BAD mRNA expression at IC50 concentration after 6 to 24 hrs by RT-qPCR analysis; type: functional, cell-based
WM164 [6] = assay: Cytotoxicity against human WM164 cells harboring BRAF V600E mutant assessed as reduction in cell viability after 24 hrs by EZ4U reagent based spectrophotometric method; type: functional; conditions: WM164, 24 h
MUGMel1 [7] = assay: Induction of apoptosis in human MUGMel1 cells assessed as late apoptotic cells at IC50 concentration after 6 hrs by Annexin V/SYTOX Green based flow cytometric analysis (reference value: 1.04%); type: functional
SBcl2 [8] = assay: Antitumour activity against human SBcl2 cells xenografted in NU(NCr)-Foxn1 mouse assessed as increase in necrotic cells at 2 ug/g administered for three consecutive days with 1 day interval for four cycle by hematoxylin and eosin staining based microscopic analysis; type: functional
WM793 [9] = assay: Induction of apoptosis in human WM793 cells assessed as late apoptotic cells at IC50 concentration after 24 hrs by Annexin V/SYTOX Green based flow cytometric analysis (reference value: 0.66%); type: functional
MUGMel2 [10] = assay: Induction of apoptosis in human MUGMel2 cells assessed as viable cells at IC50 concentration after 6 hrs by Annexin V/SYTOX Green based flow cytometric analysis (reference value: 91.12%); type: functional
SBcl2 [11] = assay: Induction of apoptosis in human SBcl2 cells assessed as up regulation of BCL2 at IC50 concentration after 6 to 24 hrs by RT-qPCR analysis; type: functional, cell-based
MUGMel1 [12] = assay: Induction of apoptosis in human MUGMel1 cells assessed as up regulation of PUMA at IC50 concentration after 6 to 24 hrs by RT-qPCR analysis; type: functional, cell-based
WM164 [13] = assay: Antitumour activity against human WM164 cells xenografted in NU(NCr)-Foxn1 mouse assessed as decrease in tumour size at 2 ug/g administered for three consecutive days with 1 day interval for four cycle; type: functional, cell-based
MUGMel1 [14] = assay: Induction of apoptosis in human MUGMel1 cells assessed as late apoptotic cells at IC50 concentration after 24 hrs by Annexin V/SYTOX Green based flow cytometric analysis (reference value: 1.18%); type: functional
MUGMel1 [15] = assay: Induction of apoptosis in human MUGMel1 cells assessed as up regulation of NOXA protein expression at IC50 concentration after 24 hrs by Western blot analysis; type: functional, cell-based
B16-F0 [16] = assay: Cytotoxicity against mouse B16F0 cells assessed as reduction in cell viability after 24 hrs by MTT assay; type: functional, cell-based; conditions: B16F0, 24 h
MUGMel2 [17] = assay: Induction of apoptosis in human MUGMel2 cells assessed as late apoptotic cells at IC50 concentration after 6 hrs by Annexin V/SYTOX Green based flow cytometric analysis (reference value: 5.69%); type: functional
MUGMel1 [18] = assay: Induction of apoptosis in human MUGMel1 cells assessed as necrotic cells at IC50 concentration after 6 hrs by Annexin V/SYTOX Green based flow cytometric analysis (reference value: 0.39%); type: functional
SBcl2 [19] = assay: Cytotoxicity against human SBcl2 cells harboring NRAS Q61I mutant assessed as reduction in cell viability after 24 hrs by EZ4U reagent based spectrophotometric method; type: functional; conditions: SBcl2, 24 h
SBcl2 [20] = assay: Induction of apoptosis in human SBcl2 cells assessed as up regulation of PMAIP1 at IC50 concentration after 24 hrs by mRNA sequencing method relative to control; type: functional
WM164 [21] = assay: Cytotoxicity against human WM164 cells harboring BRAF V600E mutant assessed as reduction in cell viability after 72 hrs by EZ4U reagent based spectrophotometric method; type: functional; conditions: WM164, 72 h
MUGMel2 [22] = assay: Induction of apoptosis in human MUGMel2 cells assessed as late apoptotic cells at IC50 concentration after 24 hrs by Annexin V/SYTOX Green based flow cytometric analysis (reference value: 9.64%); type: functional
MUGMel2 [23] = assay: Induction of apoptosis in human MUGMel2 cells assessed as increase in caspase -3 activity at IC50 concentration after 24 hrs by Alexa Fluor 647 antibody based flow cytometric analysis; type: functional, cell-based
MUGMel2 [24] = assay: Induction of apoptosis in human MUGMel2 cells assessed as effect on BAD mRNA expression at IC50 concentration after 6 to 24 hrs by RT-qPCR analysis; type: functional, cell-based
WM164 [25] = assay: Induction of apoptosis in human WM164 cells assessed as up regulation of PMAIP1 at IC50 concentration after 24 hrs by mRNA sequencing method relative to control; type: functional
MUGMel2 [26] = assay: Induction of apoptosis in human MUGMel2 cells assessed as effect on PUMA protein expression at IC50 concentration after 24 hrs by Western blot analysis; type: functional, cell-based
MUGMel1 [27] = assay: Induction of apoptosis in human MUGMel1 cells assessed as increase in caspase -3 activity at IC50 concentration after 24 hrs in presence of caspase -inhibitor by Alexa Fluor 647 antibody based flow cytometric analysis; type: functional, cell-based
WM164 [28] = assay: Induction of apoptosis in human WM164 cells assessed as up regulation of NOXA protein expression at IC50 concentration after 24 hrs by Western blot analysis; type: functional, cell-based
MUGMel2 [29] = assay: Induction of apoptosis in human MUGMel2 cells assessed as necrotic cells at IC50 concentration after 24 hrs by Annexin V/SYTOX Green based flow cytometric analysis (reference value: 1.1%); type: functional
SBcl2 [30] = assay: Induction of apoptosis in human SBcl2 cells assessed as viable cells at IC50 concentration after 24 hrs by Annexin V/SYTOX Green based flow cytometric analysis (reference value: 73.08%); type: functional
MUGMel1 [31] = assay: Induction of apoptosis in human MUGMel1 cells assessed as effect on BAD mRNA expression at IC50 concentration after 6 to 24 hrs by RT-qPCR analysis; type: functional, cell-based
B16-F0 [32] = assay: Cytotoxicity against mouse B16F0 cells assessed as reduction in cell viability after 48 hrs by MTT assay; type: functional, cell-based; conditions: B16F0, 48 h
WM164 [33] = assay: Induction of apoptosis in human WM164 cells assessed as effect on PUMA protein expression at IC50 concentration after 24 hrs by Western blot analysis; type: functional, cell-based
WM793 [34] = assay: Induction of apoptosis in human WM793 cells assessed as up regulation of NOXA at IC50 concentration after 6 to 24 hrs by RT-qPCR analysis; type: functional, cell-based
MUGMel1 [35] = assay: Induction of apoptosis in human MUGMel1 cells assessed as effect on PUMA protein expression at IC50 concentration after 24 hrs by Western blot analysis; type: functional, cell-based

## CC(C)=CC[C@@H](OC(=O)C=C(C)C)C1=CC(=O)c2c(O)ccc(O)c2C1=O [DIMETHYLACRYLSHIKONIN]
[1]
  IC50: 7.1 µM
WM164 [2]
  Activity: inactive
SBcl2 [3]
  Activity: 16.44%
SBcl2 [4]
  Activity: Active
SBcl2 [5]
  Activity: inactive
WM164 [6]
  IC50: 3.8 µM
MUGMel1 [7]
  Activity: 2.36%
SBcl2 [8]
  Activity: 50%
WM793 [9]
  Activity: 2.78%
MUGMel2 [10]
  Activity: 75.52%
SBcl2 [11]
  Activity: Active
MUGMel1 [12]
  Activity: Active
WM164 [13]
  Activity: inactive
MUGMel1 [14]
  Activity: 10.11%
MUGMel1 [15]
  Activity: Active
B16-F0 [16]
  IC50: 1.2 to 5.1 µM
MUGMel2 [17]
  Activity: 13.53%
MUGMel1 [18]
  Activity: 0.11%
SBcl2 [19]
  IC50: 1.9 µM
SBcl2 [20]
  fold change (FC): 1.37
WM164 [21]
  IC50: 2.4 µM
MUGMel2 [22]
  Activity: 43.89%
MUGMel2 [23]
  Activity: Active
MUGMel2 [24]
  Activity: inactive
WM164 [25]
  fold change (FC): 1.6
MUGMel2 [26]
  Activity: inactive
MUGMel1 [27]
  Activity: inactive
WM164 [28]
  Activity: Active
MUGMel2 [29]
  Activity: 0.16%
SBcl2 [30]
  Activity: 8.43%
MUGMel1 [31]
  Activity: inactive
B16-F0 [32]
  IC50: 1.2 to 5.1 µM
WM164 [33]
  Activity: inactive
WM793 [34]
  Activity: inactive
MUGMel1 [35]
  Activity: inactive
